From US9120749B2, “Quinoline derivatives and MELK inhibitors containing the same” (ONCOTHERAPY SCIENCE, INC., priority 2010, dated 2015)
Where a name gives a salt, the structure may show the parent alone.

What was measured:
[1] = tested on: A549 cells; experiment: Cell-based assay: anti-proliferative activity, Cell Counting Kit-8, 72 hours (A549); settings: Homo sapiens, A549, 72 h, 72 hours
Procedure, shortened: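 A549 cells were seeded in 96-well plates and exposed to candidate inhibitors for 72 hours. Cell growth was then measured with Cell Counting Kit-8, and IC50 values were calculated from the resulting growth data.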

[2] = biological target: MELK (Homo sapiens, UniProt Q14680); experiment: Kinase assay: MELK activity, phosphorylation of FITC-labeled histone H3 peptide measured by IMAP fluorescence polarization; format: biochemical; settings: MELK kinase assay, IMAP fluorescence polarization, 50 micro-M ATP; read-out: IC50 (μM) (kinase assay)
Procedure, shortened: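 FP readout: FITC-histone H3 peptide phosphorylation, read 0.5 h (RT) after stopping with 3x volume of IMAP progressive binding solution. Final DMSO 1%.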

[3] = tested on: DU4475 cells; experiment: Cell-based assay: anti-proliferative activity, Cell Counting Kit-8, 72 hours (DU4475); settings: Homo sapiens, DU-4475
[4] = tested on: 22Rv1 cells; experiment: Cell-based assay: anti-proliferative activity, Cell Counting Kit-8, 72 hours (22Rv1); settings: Homo sapiens
[5] = tested on: T47D cells; experiment: Cell-based assay: anti-proliferative activity, Cell Counting Kit-8, 72 hours (T47D); settings: Homo sapiens, T47D, 72 h
Procedure, shortened: (§1)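 Cellular growth is read by CCK-8 colorimetric kit 72 h after inhibitor addition to seeded cells, and IC50 values are derived from the resulting data; MELK protein levels in these lines are checked beforehand by immunoblotting whole crude lysate.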

[6] = tested on: HT-1197 cells; experiment: Cell-based assay: anti-proliferative activity, Cell Counting Kit-8, 72 hours (HT-1197, negative control without MELK expression); settings: Homo sapiens, HT1197, 72 h, HT1197 cells (negative control), 72 hours
Procedure, shortened: as §1

MELK, sequence (Q14680 whole entry, looked up): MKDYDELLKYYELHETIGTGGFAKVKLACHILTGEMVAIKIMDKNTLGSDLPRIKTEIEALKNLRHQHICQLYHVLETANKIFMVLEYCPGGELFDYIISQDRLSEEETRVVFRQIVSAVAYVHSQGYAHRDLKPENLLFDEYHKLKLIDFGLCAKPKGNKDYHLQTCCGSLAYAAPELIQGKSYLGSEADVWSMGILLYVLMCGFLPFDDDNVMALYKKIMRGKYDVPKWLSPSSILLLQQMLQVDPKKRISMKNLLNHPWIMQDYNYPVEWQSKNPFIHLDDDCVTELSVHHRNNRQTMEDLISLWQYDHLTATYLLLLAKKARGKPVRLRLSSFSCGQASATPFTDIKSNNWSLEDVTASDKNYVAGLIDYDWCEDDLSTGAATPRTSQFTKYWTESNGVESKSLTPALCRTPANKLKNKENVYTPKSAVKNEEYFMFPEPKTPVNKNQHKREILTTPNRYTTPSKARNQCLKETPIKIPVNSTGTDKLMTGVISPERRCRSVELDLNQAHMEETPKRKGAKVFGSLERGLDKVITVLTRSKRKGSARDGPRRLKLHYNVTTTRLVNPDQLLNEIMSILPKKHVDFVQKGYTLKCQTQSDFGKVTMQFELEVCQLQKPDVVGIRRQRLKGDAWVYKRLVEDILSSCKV

| Compound | IC50 [1] [µM] | IC50 [2] [µM] | IC50 [3] [µM] | IC50 [4] [µM] | IC50 [5] [µM] | IC50 [6] [µM] |
| --- | --- | --- | --- | --- | --- | --- |
| CC(=O)c1cnc2cc(F)c(-c3cc(F)c(O)c(Cl)c3)cc2c1N[C@H]1CC[C@H](CN(C)C)CC1 [Example 904, 1-(6-(3-chloro-5-fluoro-4-hydroxy-phenyl)-4-((1R,4R)-4-((dimethylamino)methyl)cyclohexyl)amino)-7-fluoro-quinolin-3-yl)ethanone hydrochloride] | 0.43 | 0.017 | 0.26 | 0.33 | 0.51 | 1.6 |
| CC(=O)c1cnc2ccc(-c3cc(F)c(O)c(Cl)c3)cc2c1N[C@H]1CC[C@H](NC(=O)C(N)C(C)C)CC1 (stereo partly drawn) [Example 907] | 0.18 | 0.0047 | 0.033 | 0.059 | 0.016 | 3.7 |
| CS(=O)(=O)c1cnc2ccc(-c3cc(F)c(O)c(Cl)c3)cc2c1Nc1ccc(N2CCCC(N)C2)nc1 (stereo not drawn) [Example 909, 4-(4-(6-(3-aminopiperidin-1-yl)pyridin-3-ylamino)-3-(methylsulfonyl)quinolin-6-yl)-2-chloro-6-fluorophenol] | 2.8 | 0.0016 | 0.042 | 0.44 | 0.19 | 10 |
| CC(=O)c1cnc2ccc(-c3ccc4[nH]ncc4c3)cc2c1N[C@H]1CC[C@H](CN(C)C)CC1 [Example 910, 1-(4-((1R,4R)-4-((dimethylamino)methyl)cyclohexyl)amino)-6-(1H-indazol-5-yl)quinolin-3-yl)ethanone hydrochloride] | 2.6 | 0.1 | 5.4 | 3.4 | 6 | 9.8 |
| CC(=O)c1cnc2ccc(-c3ccc4nc[nH]c4c3)cc2c1N[C@H]1CC[C@H](CN(C)C)CC1 [Example 911, 1-(6-(1H-benzo[d]imidazol-6-yl)-4-((1R,4R)-4-((dimethylamino)methyl)cyclohexyl)amino)quinolin-3-yl) ethanone hydrochloride] | 3.2 | 0.13 | 10 | 5.4 | 10 | 13 |
| CC(=O)c1cnc2ccc(-c3cn[nH]c3)cc2c1N[C@H]1CC[C@H](CN(C)C)CC1 [Example 912, 1-(4-((1R,4R)-4-((dimethylamino)methyl)cyclohexyl)amino)-6-(1H-pyrazol-4-yl)quinolin-3-yl)ethanone hydrochloride] | 1.3 | 0.074 | 1.4 | 1.7 | 4.2 | 3 |
| CS(=O)(=O)c1cnc2ccc(-c3cc(Cl)c(O)c(Cl)c3)cc2c1Nc1ccc(N2CCCC(N)C2)nc1 (stereo not drawn) [Example 913, 4-(4-(6-(3-aminopiperidin-1-yl)pyridin-3-ylamino)-3-(methylsulfonyl)quinolin-6-yl)-2,6-dichlorophenol] | 2.6 | 0.00094 | 0.025 | 0.58 | 0.27 | 100 |
| CC(=O)c1cnc2ccc(-c3cc(F)c(O)c(Cl)c3)cc2c1N[C@H]1CC[C@H](NC(=O)[C@@H](N)C(C)(C)C)CC1 [Example 914, (S)-N-((1r,4S)-4-((3-acetyl-6-(3-chloro-5-fluoro-4-hydroxyphenyl)quinolin-4-yl)amino)cyclohexyl)-2-amino-3,3-dimethylbutanamide hydrochloride] | 0.65 | 0.028 | 0.19 | 0.28 | 0.075 | 3.6 |
| CC(=O)c1cnc2ccc(-c3cc(Cl)c(O)c(Cl)c3)cc2c1N[C@H]1CC[C@H](NC(=O)C(N)C(C)C)CC1 (stereo partly drawn) [Example 915] | 0.29 | 0.0031 | 0.062 | 0.099 | 0.053 | 3.5 |
| COc1cc(-c2ccc3ncc(C(=O)C4CCCC4)c(N[C@H]4CC[C@H](CN(C)C)CC4)c3c2)cc(Cl)c1O [Example 916, (6-(3-chloro-4-hydroxy-5-methoxy-phenyl)-4-((1R,4R)-4-((dimethyl-amino)methyl)cyclohexyl)amino) quinolin-3-yl)(cyclopentyl) methanone hydrochloride] | 1.1 | 0.0048 | 1 | 1.5 | 1.2 | 3.1 |
| CN(C)C[C@H]1CC[C@H](Nc2c(C(=O)C(C)(C)C)cnc3ccc(-c4cc(F)c(O)c(Cl)c4)cc23)CC1 [Example 919, 1-(6-(3-chloro-5-fluoro-4-hydroxy-phenyl)-4-((1R,4R)-4-((dimethylamino)methyl)cyclohexyl)amino)quinolin-3-yl)-2,2-dimethylpropan-1-one hydrochloride] | 4.3 | 0.034 | 2.5 | 3.5 | 1.9 | 6.4 |
| CC(=O)c1cnc2ccc(-c3cc(Cl)c(O)c(Cl)c3)cc2c1N[C@H]1CC[C@H](NC(=O)[C@@H]2CCCN2)CC1 [Example 920, (S)—N-((1R,4S)-4-(3-acetyl-6-(3,5-dichloro-4-hydroxyphenyl)quinolin-4-ylamino)cyclohexyl)pyrrolidine-2-carboxamide] | 0.86 | 0.0019 | 0.073 | 0.34 | 0.1 | 6.5 |
| CC(=O)c1cnc2ccc(-c3cc(F)c(O)c(Cl)c3)cc2c1N[C@H]1CC[C@H](NC(=O)[C@@H]2CCCN2)CC1 [Example 921, (S)—N-((1R,4S)-4-(3-acetyl-6-(3-chloro-5-fluoro-4-hydroxyphenyl)quinolin-4-ylamino)cyclohexyl)pyrrolidine-2-carboxamide] | 1.2 | 0.012 | 0.068 | 0.21 | 0.048 | 10 |
| CC(=O)c1cnc2cc(F)c(-c3cc(Cl)c(O)c(Cl)c3)cc2c1N[C@H]1CC[C@H](CN2CCCC2)CC1 [Example 923, 1-(6-(3,5-dichloro-4-hydroxyphenyl)-7-fluoro-4-((1R,4R)-4-(pyrrolidin-1-ylmethyl)cyclohexyl)amino)quinolin-3-yl)ethanone hydrochloride] | 0.39 | 0.007 | 0.2 | 0.29 | 0.63 | 2.5 |
| COc1cc(-c2ccc3ncc(C(=O)C4CCCC4)c(Nc4cccc(CCN5CCCC5)c4)c3c2)cc(Cl)c1O [Example 924, (6-(3-chloro-4-hydroxy-5-methoxy-phenyl)-4-((3-(2-(pyrrolidin-1-yl)ethyl)phenyl)amino)quinolin-3-yl) (cyclopentyl)methanone hydrochloride] | 3.7 | 0.018 | 1.8 | 3 | 3.2 | 3.3 |
| CC(=O)c1cnc2cc(F)c(-c3cc(F)c(O)c(Cl)c3)cc2c1N[C@H]1CC[C@H](CN2CCCC2)CC1 [Example 925, 1-(6-(3-chloro-5-fluoro-4-hydroxy-phenyl)-7-fluoro-4-((1R,4R)-4-(pyrrolidin-1-ylmethyl)cyclohexyl)amino)quinolin-3-yl)ethanone hydrochloride] | 0.38 | 0.019 | 0.27 | 0.27 | 0.52 | 1.5 |
| COc1cc(-c2cc3c(N[C@H]4CC[C@H](CN5CCCC5)CC4)c(C(C)=O)cnc3cc2F)cc(Cl)c1O [Example 926, 1-(6-(3-chloro-4-hydroxy-5-methoxy-phenyl)-7-fluoro-4-((1R,4R)-4-(pyrrolidin-1-ylmethyl)cyclohexyl)amino)quinolin-3-yl)ethanone hydrochloride] | 0.61 | 0.0079 | 0.55 | 0.69 | 2.7 | 5 |
| CC(=O)c1cnc2ccc(-c3ccc4cc(O)ccc4c3)cc2c1N[C@H]1CC[C@H](CN(C)C)CC1 [Example 929, 1-(4-((1R,4R)-4-((dimethylamino)methyl)cyclohexyl)amino)-6-(6-hydroxynaphthalen-2-yl)quinolin-3-yl)ethanone hydrochloride] | 0.87 | 0.064 | 2.8 | 0.71 | 3.3 | 3.9 |
| CN1CCC(n2cc(Nc3c(C(=O)C(C)(C)C)cnc4ccc(-c5cc(F)c(O)c(Cl)c5)cc34)cn2)CC1 [Example 930, 1-(6-(3-chloro-5-fluoro-4-hydroxy-phenyl)-4-((1-(1-methylpiperidin-4-yl)-1H-pyrazol-4-yl)amino)quinolin-3-yl)-2,2-dimethylpropan-1-one hydrochloride] | 4.4 | 0.017 | 1.3 | 2.5 | 1.7 | 14 |
| CN1CCC(n2cc(Nc3c(C(=O)C(C)(C)C)cnc4ccc(-c5cc(Cl)c(O)c(Cl)c5)cc34)cn2)CC1 [Example 931, 1-(6-(3,5-dichloro-4-hydroxyphenyl)-4-((1-(1-methylpiperidin-4-yl)-1H-pyrazol-4-yl)amino)quinolin-3-yl)-2,2-dimethylpropan-1-one hydrochloride] | 1.8 | 0.0062 | 1.5 | 2.1 | 1.4 | 100 |
